Measurements reported in patent US20250019385A1, “SPIROCYCLIC ANNULATED 2-AMINO-3-CYANO THIOPHENES AND DERIVATIVES FOR THE TREATMENT OF CANCER” (Boehringer Ingelheim International GmbH, priority 2023, published 2025).

Experiments:
Ba/F3 cells KRAS G12C = experiment: Ba/F3 proliferation assay (KRAS G12C); assay type: cell-based; details: Mus musculus, BaF3, 72 h, AlamarBlue viability
How it was run: (§1)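 Ba/F3 cells retrovirally transduced with KRAS G12 mutant, puromycin-selected, grown IL-3-independent; seeded in RPMI-1640 + 10% FCS without IL-3. Logarithmic compound dose series in duplicate, 72 h at 37° C., AlamarBlue fluorescence as % of DMSO control; IC50 from four-parameter non-linear regression.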

[1] = Caco-2 assay (permeability and efflux ratio); assay type: in vitro ADME; details: human; for Papp A→B at 90 min, 10 μM: Caco-2 apical to basolateral permeability, pH 7.4, read-out: Caco PappAB; for efflux ratio at 90 min, 10 μM: pH 7.4, Caco-2 efflux ratio PappBA/PappAB, read-out: Caco ER
Procedure: The assay provides information on the potential of a compound to pass the cell membrane, on the extent of oral absorption as well as on whether the compound is actively transported by uptake and/or efflux transporters. Permeability measurements across polarized, confluent Caco-2 cell monolayers grown on permeable filter supports (Corning, catalog #3391) are used. 10 μM test compound solution in assay buffer (128.13 mM NaCl, 5.36 mM KCl, 1 mM MgSO4, 1.8 mM CaCl2), 4.17 mM NaHCO3, 1.19 mM Na2HPO4, 0.41 mM NaH2PO4, 15 mM 2-[4-(2-hydroxyethyl)piperazin-1-yl]ethanesulfonic acid (HEPES), 20 mM glucose, pH 7.4) was added to the donor compartment of the cell chamber containing a monolayer of Caco-2 cells in between the donor and the receiver compartment. The receiver and donor compartments contain 0.25% bovine serum albumine (BSA) in assay buffer. Passive diffusion and/or active transport of compounds across the monolayer is measured in both apical to basolateral (a-b) and basolateral to apical (b-a) direction. a-b permeability (PappAB) represents drug absorption from the intestine into the blood and b-a permeability (PappBA) drug secretion from the blood back into the intestine via both passive permeability as well as active transport mechanisms mediated by efflux and uptake transporters that are expressed on the Caco-2 cells. After a pre-incubation of 25-30 min at 37° C., at predefined time points (0, 30, 60 and 90 min), samples were taken from the receiver and donor compartment, respectively. Concentrations of test compounds in samples were measured by HPLC/MS/MS, samples from the donor compartment were diluted 1:50 (v:v) with assay buffer, samples from receiver compartment were measured without dilution.
Apparent permeabilities in a-b (PappAB) and b-a (PappBA) directions are calculated according to the formula:
[formula] • Vrec [mL]: buffer volume in receiver compartment • Cdon [μmol/mL]: concentration of test compound in donor compartment at t=0 • ΔCrec: difference between concentrations of test compound in receiver compartment at start and end of incubation time • Δt: Incubation time • Vrec·ΔCrec/Δt [μmol/min]: Amount of compound transferred to receiver compartment per time • A [cm^2]: filter surface
Caco-2 efflux ratios (ER) are calculated as the ratio of PappBA/PappAB.

Ba/F3 cells KRAS G12D = experiment: Ba/F3 proliferation assay (KRAS G12D); assay type: cell-based; details: Mus musculus, BaF3, 72 h, AlamarBlue viability
How it was run: as §1

[2] = molecular target: KRAS (G12D)::CRAF protein::protein interaction (Homo sapiens (Human), UniProt P01116, G12D); experiment: KRAS TR-FRET assay (KRAS G12D::CRAF, GTP); assay type: binding
Sequence of KRAS (G12D)::CRAF protein::protein interaction (P01116 other isoform, or with tags, fused parts or gaps G12D): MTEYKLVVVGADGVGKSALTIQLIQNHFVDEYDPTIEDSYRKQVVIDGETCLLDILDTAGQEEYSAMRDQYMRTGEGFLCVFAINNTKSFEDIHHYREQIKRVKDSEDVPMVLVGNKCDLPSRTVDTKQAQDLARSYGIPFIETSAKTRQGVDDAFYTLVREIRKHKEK
Procedure: This assay measures the inhibitory effect of compounds on KRAS::CRAF protein::protein interactions in the presence of GTP using Time-resolved fluorescence energy transfer (TR-FRET).
The following wildtype or mutant alleles of KRAS and CRAF protein have been used at the given concentrations:
KRAS (G12D) 1-169, N-terminal 6His-tag, C-terminal avi-tag (Xtal BioStructures, Inc.); final assay concentration 15 nM,
CRAF Ras binding domain, GST-tag, TEV cleavage site (Boehringer Ingelheim in house protein prep); final assay concentration 15 nM.
Test compounds dissolved in DMSO were dispensed onto assay plates (Proxiplate 384 PLUS, white, PerkinElmer; 6008289) using an Access Labcyte Workstation with the Labcyte Echo 55x. For the chosen highest assay concentration of 100 μM, 150 nl of compound solution was transferred from a 10 mM DMSO compound stock solution. A series of eleven fivefold dilutions per compound was transferred to the assay plate, compound dilutions were tested in duplicates. DMSO was added as backfill to a total volume of 150 nl.
The assay runs on a fully automated robotic system. To 150 nl of compound dilution 15 μl of a mix including the respective KRAS allele, CRAF (e.g. KRAS (G12D)::CRAF; final assay concentrations see above), GTP nucleotide (Sigma G8877; final assay concentration 10 μM), Lance Eu—W1024 labeled Streptavidin (PerkinElmer, Cat No AD0063; final assay concentration 1.5 nM) and Anti-GST surelight APC (PerkinElmer, Cat No AD0059G; final assay concentration 30 nM) in assay buffer (1×PBS, 0.1% BSA, 0.05% Tween 20) are added into columns 1-23 and 15 μL of the solution without the respective KRAS allele were added to row 24.
Plates are kept at room temperature in a darkened incubator. After 60 minutes incubation time the signal is measured in a PerkinElmer Envision HTS Multilabel Reader using the TR-FRET LANCE Ultra specs from PerkinElmer.
Each plate contains 16 wells of a negative control (diluted DMSO instead of test compound; w respective KRAS allele; column 23) and 16 wells of a positive control (diluted DMSO instead of test compound; w/o respective KRAS allele; column 24).
IC50 values were calculated and analyzed with Boehringer Ingelheim's MEGALAB 50 application using a 4 parametric logistic model.
Tables of example compounds disclosed herein contain IC50 values determined using the above assays (see Table 44).

Row | SMILES | IC50 (Ba/F3 cells KRAS G12C) [nM] | Papp A→B at 90 min, 10 μM [1] [×10⁻⁶ cm/s] | efflux ratio at 90 min, 10 μM [1] | IC50 (Ba/F3 cells KRAS G12D) [nM] | IC50 [2] [nM]
1 | CO[C@@H]1C[C@@H]([C@H](C)Oc2nc(-c3onc4c3CCC[C@@]43CCCc4sc(N)c(C#N)c43)nc3c2n(C)c(=O)n3[C@@H]2CCOC2)N(C)C1 [I-3] | 6 | 29 | 1.9 | 14 | 71
2 | C[C@H](Oc1nc(-c2noc3c2CCC[C@@]32CCCc3sc(N)c(C#N)c32)nc2c1COC[C@]21CCOC1)[C@@H]1CCCN1C [II-8] | 2 | 23 | 1.6 | 4 | 17
3 | COCCn1c(=O)n([C@@H]2CCOC2)c2nc(-c3onc4c3CCC[C@@]43CCCc4sc(N)c(C#N)c43)nc(O[C@@H](C)[C@@H]3CCCN3C)c21 [I-1] | 15 | 18 | 3.1 | 36 | 145
4 | C[C@H](Oc1nc(-c2onc3c2CCC[C@@]32CCCc3sc(N)c(C#N)c32)nc2c1n(C)c(=O)n2[C@@]12COC[C@@H]1C2)[C@@H]1CCCN1C [I-29] | 2 | 19 | 2.5 | 14 | 85
5 | CCn1c(=O)n([C@@H]2CCCOC2)c2nc(-c3onc4c3CCC[C@@]43CCCc4sc(N)c(C#N)c43)nc(O[C@@H](C)[C@@H]3CCCN3C)c21 [I-30] | 11 | – | 0.7 | 29 | 163
6 | CCn1c(=O)n([C@@H]2CCOC2)c2nc(-c3onc4c3CCC[C@@]43CCCc4sc(N)c(C#N)c43)nc(O[C@@H](C)[C@@H]3CCCN3C)c21 [I-21] | 8 | 19 | 3.8 | 21 | 85
7 | C[C@H](Oc1nc(-c2noc3c2CCC[C@@]32CCCc3sc(N)c(C#N)c32)nc2c1CCO[C@]21CCOC1)[C@@H]1CCCN1C [II-9b] | 5 | 25 | 1.8 | 8 | 117
8 | C[C@H](Oc1nc(-c2onc3c2CCC[C@@]32CCCc3sc(N)c(C#N)c32)nc2c1[nH]c(=O)n2[C@@H]1CCOC1)[C@@H]1CCCN1C [I-8] | 41 | 0.8 | 46.3 | 107 | 47

The remaining lines, values ahead:

Row | IC50 (Ba/F3 cells KRAS G12C) [nM] | Papp A→B at 90 min, 10 μM [1] [×10⁻⁶ cm/s] | efflux ratio at 90 min, 10 μM [1] | IC50 (Ba/F3 cells KRAS G12D) [nM] | IC50 [2] [nM] | SMILES
9 | 38 | 20 | 2.7 | 46 | 418 | C[C@H](Oc1nc(-c2onc3c2CCC[C@@]32CCCc3sc(N)c(C#N)c32)nc2c1n(C)c(=O)n2[C@H]1CCOC1)[C@@H]1CCCN1C [I-9]
10 | 4 | 11.9 | 6.2 | 9 | 46 | C[C@H](Oc1nc(-c2onc3c2CCC[C@@]32CCCc3sc(N)c(C#N)c32)nc2c1n(C)c(=O)n2[C@@H]1CCOC1)[C@@H]1CCCN1C [I-20]
11 | 12 | 2.9 | 18.6 | 25 | 53 | C[C@H](Oc1nc(-c2onc3c2CCC[C@@]32CCCc3sc(N)c(C#N)c32)nc2c1n(C)c(=O)n2[C@@H]1CCOC1)C12CCCN1CCC2 [I-25]
12 | 4 | 25.5 | 1.7 | 12 | 62 | C[C@H](Oc1nc(-c2onc3c2CCC[C@@]32CCCc3sc(N)c(C#N)c32)nc2c1n(C)c(=O)n2[C@@H]1CCCOC1)[C@@H]1CCCN1C [I-12]
13 | 3 | 43 | 1 | 5 | 58 | C[C@H](Oc1nc(-c2onc3c2CCC[C@@]32CCCc3sc(N)c(C#N)c32)nc2c1n(C)c(=O)n2[C@@H]1CCOC1)[C@@H]1CC[C@H](C)N1C [I-26]
